# Legend:
# Format in all cases: biochemical
# [1] = target: T1, human JAK2 (a.a. 828-1132) catalytic domain (Homo sapiens, UniProt O60674); assay: In vitro JAK kinase assay (HTRF, phosphorylation of a biotinylated peptide), JAK2; conditions: 1 mM ATP
# T1 construct: human JAK1 (a.a. 837-1142) and JAK2 (a.a. 828-1132); His tag (N); made in house; host or cells: insect cells (baculovirus)
# Method: (§1) Compounds herein were tested for inhibitory activity of JAK targets according to the following in vitro assay described in Park et al., Analytical Biochemistry 1999, 269, 94-104. The catalytic domains of human JAK1 (a.a. 837-1142) and JAK2 (a.a. 828-1132) with an N-terminal His tag were expressed using baculovirus in insect cells and purified. The catalytic activity of JAK1 and JAK2 was assayed by measuring the phosphorylation of a biotinylated peptide. The phosphorylated peptide was detected by homogenous time resolved fluorescence (HTRF). IC50s of compounds were measured for each kinase in the 40 microL reactions that contain the enzyme, ATP and 500 nM peptide in 50 mM Tris (pH 7.8) buffer with 100 mM NaCl, 5 mM DTT, and 0.1 mg/mL (0.01%) BSA. For the 1 mM IC50 measurements, ATP concentration in the reactions was 1 mM. Reactions were carried out at room temperature for 1 hour and then stopped with 20 μL 45 mM EDTA, 300 nM SA-APC, 6 nM Eu-Py20 in assay buffer (Perkin Elmer, Boston, Mass.). Binding to the Europium labeled antibody took place for 40 minutes and HTRF signal was measured on a Fusion plate reader (Perkin Elmer, Boston, Mass.). See Table A for data related to compounds of the Examples (at 1 mM). Data is indicated as ranges: <20 nM (+), 20 to <150 nM (++), 150 to 500 nM (+++).
# [2] = target: T2, human JAK1 (a.a. 837-1142) catalytic domain (Homo sapiens, UniProt P23458); assay: In vitro JAK kinase assay (HTRF, phosphorylation of a biotinylated peptide), JAK1; conditions: 1 mM ATP
# T2 construct: human JAK1 (a.a. 837-1142) and JAK2 (a.a. 828-1132); His tag (N); made in house; host or cells: insect cells (baculovirus)
# T2 sequence (P23458 849-1154): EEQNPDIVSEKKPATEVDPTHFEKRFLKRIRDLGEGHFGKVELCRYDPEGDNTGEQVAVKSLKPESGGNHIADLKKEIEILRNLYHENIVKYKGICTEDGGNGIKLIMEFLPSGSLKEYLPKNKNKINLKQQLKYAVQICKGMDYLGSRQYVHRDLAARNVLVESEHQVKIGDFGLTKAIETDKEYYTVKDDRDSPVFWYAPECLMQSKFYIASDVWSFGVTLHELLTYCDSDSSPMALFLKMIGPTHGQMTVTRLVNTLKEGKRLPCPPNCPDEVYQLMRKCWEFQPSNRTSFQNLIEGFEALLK
# Method: as §1
# [3] = system: human JAK1 (a.a. 837-1142) catalytic domain; assay: as above; conditions: ratio of JAK2 IC50 to JAK1 IC50, 1 mM ATP
# Method: as §1
# T1 sequence (O60674 828-1132): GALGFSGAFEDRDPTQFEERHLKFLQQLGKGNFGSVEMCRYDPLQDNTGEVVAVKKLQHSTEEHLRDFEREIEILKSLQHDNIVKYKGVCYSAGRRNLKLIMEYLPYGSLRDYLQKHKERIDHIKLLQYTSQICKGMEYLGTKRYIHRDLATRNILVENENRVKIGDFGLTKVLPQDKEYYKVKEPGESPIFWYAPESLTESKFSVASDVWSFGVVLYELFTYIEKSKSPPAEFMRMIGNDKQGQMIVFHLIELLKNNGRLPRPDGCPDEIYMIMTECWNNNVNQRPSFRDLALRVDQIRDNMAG
Molecule,IC50 [1] [nM],IC50 [2] [nM],JAK2/JAK1 [3]
"N#CC[C@]1(n2cc(-c3ncnc4[nH]ccc34)cn2)C[C@H](N2CCC(Nc3cc(CN4CCC4)cc(C(F)(F)F)n3)CC2)C1 [Example 39, {trans-3-(4-{[4-(azetidin-1-ylmethyl)-6-(trifluoromethyl)pyridin-2-yl]amino}piperidin-1-yl)-1-[4-(7H-pyrrolo[2,3-d]pyrimidin-4-yl)-1H-pyrazol-1-yl]cyclobutyl}acetonitrile]",20 to 150,< 20,>10
"N#CC[C@]1(n2cc(-c3ncnc4[nH]ccc34)cn2)C[C@H](N2CCC(Oc3cc(Cn4cccn4)cc(C(F)(F)F)n3)CC2)C1 [Example 25, {trans-3-(4-{[4-(1H-pyrazol-1-ylmethyl)-6-(trifluoromethyl)pyridin-2-yl]oxy}piperidin-1-yl)-1-[4-(7H-pyrrolo[2,3-d]pyrimidin-4-yl)-1H-pyrazol-1-yl]cyclobutyl}acetonitrile]",150 to 500,< 20,>10
"N#CC[C@]1(n2cc(-c3ncnc4[nH]ccc34)cn2)C[C@H](N2CCC(Nc3cc(CN4CC5(COC5)C4)cc(C(F)(F)F)n3)CC2)C1 [Example 46, {trans-3-(4-{[4-(2-oxa-6-azaspiro[3.3]hept-6-ylmethyl)-6-(trifluoromethyl)pyridin-2-yl]amino}piperidin-1-yl)-1-[4-(7H-pyrrolo[2,3-d]pyrimidin-4-yl)-1H-pyrazol-1-yl]cyclobutyl}acetonitrile]",20 to 150,< 20,>10
"CC1(NCc2cc(OC3CCN([C@H]4C[C@](CC#N)(n5cc(-c6ncnc7[nH]ccc67)cn5)C4)CC3)nc(C(F)(F)F)c2)CC1 [Example 10, {trans-3-(4-{[4-{[(1-methylcyclopropyl)amino]methyl}-6-(trifluoromethyl)pyridin-2-yl]oxy}piperidin-1-yl)-1-[4-(7H-pyrrolo[2,3-d]pyrimidin-4-yl)-1H-pyrazol-1-yl]cyclobutyl}acetonitrile]",20 to 150,< 20,>10
"COCCNCc1cc(OC2CCN([C@H]3C[C@](CC#N)(n4cc(-c5ncnc6[nH]ccc56)cn4)C3)CC2)nc(C(F)(F)F)c1 [Example 3, {trans-3-(4-{[4-{[(2-methoxyethyl)amino]methyl}-6-(trifluoromethyl)pyridin-2-yl]oxy}piperidin-1-yl)-1-[4-(7H-pyrrolo[2,3-d]pyrimidin-4-yl)-1H-pyrazol-1-yl]cyclobutyl}acetonitrile]",20 to 150,< 20,>10
"CC1(C)CN(Cc2cc(NC3CCN([C@H]4C[C@](CC#N)(n5cc(-c6ncnc7[nH]ccc67)cn5)C4)CC3)nc(C(F)(F)F)c2)C1 [Example 35, {trans-3-(4-{[4-[(3,3-dimethylazetidin-1-yl)methyl]-6-(trifluoromethyl)pyridin-2-yl]amino}piperidin-1-yl)-1-[4-(7H-pyrrolo[2,3-d]pyrimidin-4-yl)-1H-pyrazol-1-yl]cyclobutyl}acetonitrile]",20 to 150,< 20,>10
"N#CC[C@]1(n2cc(-c3ncnc4[nH]ccc34)cn2)C[C@H](N2CCC(Nc3cc(CN4CC(O)C4)cc(C(F)(F)F)n3)CC2)C1 [Example 41, {trans-3-(4-{[4-[(3-hydroxyazetidin-1-yl)methyl]-6-(trifluoromethyl)pyridin-2-yl]amino}piperidin-1-yl)-1-[4-(7H-pyrrolo[2,3-d]pyrimidin-4-yl)-1H-pyrazol-1-yl]cyclobutyl}acetonitrile]",20 to 150,< 20,>10
"N#CC[C@]1(n2cc(-c3ncnc4[nH]ccc34)cn2)C[C@H](N2CCC(Oc3cc(CN4CC(C#N)C4)cc(C(F)(F)F)n3)CC2)C1 [Example 4, 1-{[2-[(1-{trans-3-(cyanomethyl)-3-[4-(7H-pyrrolo[2,3-d]pyrimidin-4-yl)-1H-pyrazol-1-yl]cyclobutyl}piperidin-4-yl)oxy]-6-(trifluoromethyl)pyridin-4-yl]methyl}azetidine-3-carbonitrile]",20 to 150,< 20,>10
"{cis-3-(4-{[4-(2-hydroxyethyl)-6-(trifluoromethyl)pyridin-2-yl]amino}piperidin-1-yl)-1-[4-(7H-pyrrolo[2,3-d]pyrimidin-4-yl)-1H-pyrazol-1-yl]cyclobutyl}acetonitrile and {trans-3-(4-{[4-(2-hydroxyethyl)-6-(trifluoromethyl)pyridin-2-yl]amino}piperidin-1-yl)-1-[4-(7H-pyrrolo[2,3-d]pyrimidin-4-yl)-1H-pyrazol-1-yl]cyclobutyl}acetonitrile [Example 38]",20 to 150,< 20,>10

# Now from value to molecule:
IC50 [1] [nM],IC50 [2] [nM],JAK2/JAK1 [3],Molecule
20 to 150,< 20,>10,"CN(CCO)Cc1cc(NC2CCN([C@H]3C[C@](CC#N)(n4cc(-c5ncnc6[nH]ccc56)cn4)C3)CC2)nc(C(F)(F)F)c1 [Example 42, {trans-3-(4-{[4-{[(2-hydroxyethyl)(methyl)amino]methyl}-6-(trifluoromethyl)pyridin-2-yl]amino}piperidin-1-yl)-1-[4-(7H-pyrrolo[2,3-d]pyrimidin-4-yl)-1H-pyrazol-1-yl]cyclobutyl}acetonitrile]"
20 to 150,< 20,>10,"N#CC[C@]1(n2cc(-c3ncnc4[nH]ccc34)cn2)C[C@H](N2CCC(Oc3cc(Cn4cnnc4)cc(C(F)(F)F)n3)CC2)C1 [Example 24, [trans-1-[4-(7H-pyrrolo[2,3-d]pyrimidin-4-yl)-1H-pyrazol-1-yl]-3-(4-{[4-(4H-1,2,4-triazol-4-ylmethyl)-6-(trifluoromethyl)pyridin-2-yl]oxy}piperidin-1-yl)cyclobutyl]acetonitrile]"
20 to 150,< 20,>10,"N#CC[C@]1(n2cc(-c3ncnc4[nH]ccc34)cn2)C[C@H](N2CCC(Nc3cc(CN4CC[C@@H](O)C4)cc(C(F)(F)F)n3)CC2)C1 [Example 44, {trans-3-(4-{[4-{[(3R)-3-hydroxypyrrolidin-1-yl]methyl}-6-(trifluoromethyl)pyridin-2-yl]amino}piperidin-1-yl)-1-[4-(7H-pyrrolo[2,3-d]pyrimidin-4-yl)-1H-pyrazol-1-yl]cyclobutyl}acetonitrile]"
20 to 150,< 20,>10,"CCNCc1cc(NC2CCN([C@H]3C[C@](CC#N)(n4cc(-c5ncnc6[nH]ccc56)cn4)C3)CC2)nc(C(F)(F)F)n1 [Example 28, {trans-3-(4-{[6-[(ethylamino)methyl]-2-(trifluoromethyl)pyrimidin-4-yl]amino}piperidin-1-yl)-1-[4-(7H-pyrrolo[2,3-d]pyrimidin-4-yl)-1H-pyrazol-1-yl]cyclobutyl}acetonitrile]"
20 to 150,< 20,>10,"C[C@@H](O)CNCc1cc(OC2CCN([C@H]3C[C@](CC#N)(n4cc(-c5ncnc6[nH]ccc56)cn4)C3)CC2)nc(C(F)(F)F)c1 [Example 14, {trans-3-(4-{[4-({[(2R)-2-hydroxypropyl]amino}methyl)-6-(trifluoromethyl)pyridin-2-yl]oxy}piperidin-1-yl)-1-[4-(7H-pyrrolo[2,3-d]pyrimidin-4-yl)-1H-pyrazol-1-yl]cyclobutyl}acetonitrile]"
20 to 150,< 20,>10,"COCc1cc(NC2CCN([C@H]3C[C@](CC#N)(n4cc(-c5ncnc6[nH]ccc56)cn4)C3)CC2)nc(C(F)(F)F)c1 [Example 45, {trans-3-(4-{[4-(methoxymethyl)-6-(trifluoromethyl)pyridin-2-yl]amino}piperidin-1-yl)-1-[4-(7H-pyrrolo[2,3-d]pyrimidin-4-yl)-1H-pyrazol-1-yl]cyclobutyl}acetonitrile]"
20 to 150,< 20,>10,"N#CC[C@]1(n2cc(-c3ncnc4[nH]ccc34)cn2)C[C@H](N2CCC(Nc3cc(CN4CC[C@H](O)C4)cc(C(F)(F)F)n3)CC2)C1 [Example 43, {trans-3-(4-{[4-{[(3S)-3-hydroxypyrrolidin-1-yl]methyl}-6-(trifluoromethyl)pyridin-2-yl]amino}piperidin-1-yl)-1-[4-(7H-pyrrolo[2,3-d]pyrimidin-4-yl)-1H-pyrazol-1-yl]cyclobutyl}acetonitrile]"
20 to 150,< 20,>10,"N#CC[C@]1(n2cc(-c3ncnc4[nH]ccc34)cn2)C[C@H](N2CCC(Oc3cc(CN4CC5(COC5)C4)cc(C(F)(F)F)n3)CC2)C1 [Example 6, {trans-3-(4-{[4-(2-oxa-6-azaspiro[3.3]hept-6-ylmethyl)-6-(trifluoromethyl)pyridin-2-yl]oxy}piperidin-1-yl)-1-[4-(7H-pyrrolo[2,3-d]pyrimidin-4-yl)-1H-pyrazol-1-yl]cyclobutyl}acetonitrile]"

# Source: patent US9193733B2, “Piperidinylcyclobutyl substituted pyrrolopyridine and pyrrolopyrimidine derivatives as JAK inhibitors” (Incyte Corporation, priority 2012, dated 2015)
